Measured values reported in PMC10584170, “Machine learning-based phenotypic imaging to characterise the targetable biology of Plasmodium falciparum male gametocytes for the development of transmission-blocking antimalarials” (PLOS Pathogens, 2023).

Assays:
[1] = system: P. falciparum female gametocytes; assay: P. falciparum Dual Gamete Formation Assay (PfDGFA), female readout (Pfs25-positive female gametes); assay type: cell-based, Plasmodium falciparum NF54; conditions: for Average inhibition female (%): average of replicates; for % inhibition female (individual replicates) R1: replicate R1; for % inhibition female (individual replicates) R3: replicate R3; for % inhibition female (individual replicates) R4: replicate R4
Summary of the method: (§1)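 Mature NF54 gametocytes (day 14) were incubated with compound for 24 h at 37°C under 1% O2/3% CO2, then triggered with xanthurenic acid ookinete medium plus Cy3-anti-Pfs25. Exflagellation was imaged by brightfield; after a further 24 h at 28°C, Pfs25-positive female gametes were imaged by fluorescence and counted by automated image analysis.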

[2] = system: P. falciparum male gametocytes; assay: P. falciparum Dual Gamete Formation Assay (PfDGFA), male readout (exflagellation); assay type: cell-based, Plasmodium falciparum NF54; conditions: for Average inhibition male (%): average of replicates; for % inhibition male (individual replicates) R1: replicate R1; for % inhibition male (individual replicates) R3: replicate R3; for % inhibition male (individual replicates) R4: replicate R4; for Activity: hit = >50% inhibition in male or female readout in at least 3 replicates, 0 = no class assigned
Summary of the method: as §1

[3] = 2µM, 24h preincubation with gametocytes prior to induction of gametogenesis
[4] = 2µM, 24h preincubation, number of replicates with >50% inhibition in the female readout
[5] = 2µM, 24h preincubation, number of replicates with >50% inhibition in the male readout
[6] = 2µM, 24h preincubation, hits selected on >50% inhibition in the female readout across replicates
[7] = 2µM, 24h preincubation, hits selected on >50% inhibition in the male readout across replicates
[8] = PfDGFA at 2µM, 24h preincubation
[9] = PfDGFA at 2µM, 24h preincubation with gametocytes
[10] = number of replicates with >50% inhibition in the female readout, 2µM
[11] = number of replicates with >50% inhibition in the male readout, 2µM
[12] = PfDGFA at 2µM, 24h preincubation with gametocytes prior to induction of gametogenesis

| SMILES | Average inhibition female (%) [1, 3] | % inhibition female (individual replicates) R1 [1, 3] | % inhibition female (individual replicates) R3 [1, 3] | % inhibition female (individual replicates) R4 [1, 3] | Average inhibition male (%) [2, 3] | % inhibition male (individual replicates) R1 [2, 3] | % inhibition male (individual replicates) R3 [2, 3] | % inhibition male (individual replicates) R4 [2, 3] | HitlevelF [1, 6] | HitlevelM [2, 7] | Activity [2, 8] | % inhibition female (individual replicates) R1 [1, 12] | % inhibition female (individual replicates) R3 [1, 12] | % inhibition female (individual replicates) R4 [1, 12] | Average inhibition female (%) [1, 8] | % inhibition male (individual replicates) R1 [2, 12] | % inhibition male (individual replicates) R4 [2, 12] | Average inhibition male (%) [2, 8] | further results |
| --- | --- | --- | --- | --- | --- | --- | --- | --- | --- | --- | --- | --- | --- | --- | --- | --- | --- | --- | --- |
| CC(C)COc1ccc2ccccc2c1CNCCCCCCNCc1c(OCC(C)C)ccc2ccccc12.CS(=O)(=O)O [TCMDC-137972] | 43.0% | 37.9% | 36.7% | 62.6% | 47.1% | 41.0% | 61.0% | 84.0% | – | – | – | – | – | – | – | – | – | – | HitlevelF [1, 4]: 1; HitlevelM [2, 5]: 2 |
| CN(C)S(=O)(=O)n1ccc2c3c(N)nc(N)nc3ccc21 [TCMDC-137973] | 12.1% | 13.5% | 33.5% | 1.8% | -3.2% | 31.1% | -3.2% | -51.1% | 0 | 0 | 0 | – | – | – | – | – | – | – | – |
| CCCCOc1c(CNCCCCCCNCc2ccc3ccccc3c2OCCCC)ccc2ccccc12.CS(=O)(=O)O [TCMDC-137975] | – | – | – | – | – | – | – | – | – | – | – | – | – | – | – | – | – | – | Average inhibition female (%) [1, 9]: 39.1%; % inhibition female (individual replicates) R1 [1, 9]: 52.1%; % inhibition female (individual replicates) R3 [1, 9]: 14.4%; % inhibition female (individual replicates) R4 [1, 9]: 37.6%; HitlevelF [1, 10]: 2; Average inhibition male (%) [2, 9]: 78.3%; % inhibition male (individual replicates) R1 [2, 9]: 78.0%; % inhibition male (individual replicates) R4 [2, 9]: 67.8%; HitlevelM [2, 11]: 3 |
| CC(C)(C)c1ccc(-c2cc3c(ccc4nc(N)nc(N)c43)[nH]2)cc1 [TCMDC-137977] | 6.0% | 2.7% | -16.6% | 37.6% | 2.0% | 6.1% | 0.4% | -0.46% | 0 | 0 | 0 | – | – | – | – | – | – | – | – |
| Nc1nc(N)c2c(ccc3c2ccn3Cc2ccccn2)n1 [TCMDC-137980] | – | – | – | – | – | – | – | – | – | – | – | 1.3% | -9.6% | 4.7% | -4.0% | -11.9% | -51.4% | -22.7% | – |
| C=CCn1ccc2c3c(N)nc(N)nc3ccc21 [TCMDC-137995] | – | – | – | – | – | – | – | – | – | – | – | -8.1% | -14.1% | 22.9% | -3.2% | 38.6% | 16.7% | 27.9% | % inhibition male (individual replicates) R3 [2, 12]: 29.0% |
| CCCN(CCC)CCCN(CCCN(CCC)CCC)c1cc(C)nc(Nc2ccc3cc(Br)ccc3c2)n1.Cl [TCMDC-138006] | – | – | – | – | – | – | – | – | – | – | – | – | – | – | – | – | – | – | Average inhibition female (%) [1, 9]: 38.7%; % inhibition female (individual replicates) R1 [1, 9]: 42.6%; % inhibition female (individual replicates) R3 [1, 9]: 25.8%; % inhibition female (individual replicates) R4 [1, 9]: 40.6%; HitlevelF [1, 10]: 0; Average inhibition male (%) [2, 9]: 65.9%; % inhibition male (individual replicates) R1 [2, 9]: 64.4%; % inhibition male (individual replicates) R3 [2, 9]: 70.2%; % inhibition male (individual replicates) R4 [2, 9]: 75.1%; HitlevelM [2, 11]: 4 |
| Cc1ccc2ccncc2c1N [TCMDC-138025] | – | – | – | – | – | – | – | – | – | – | – | -5.1% | -43.7% | -6.6% | -17.6% | 6.2% | 37.3% | 29.9% | % inhibition male (individual replicates) R3 [2, 12]: 45.8% |
| Cc1c(Cc2ccc(C(C)C)cc2)cnc2nc(N)nc(N)c12 [TCMDC-138044] | – | – | – | – | – | – | – | – | – | – | – | 2.8% | -15.2% | -3.9% | -2.8% | 10.0% | -19.8% | -5.8% | % inhibition male (individual replicates) R3 [2, 12]: -13.9% |
| COc1ccc(Cc2cnc3nc(N)nc(N)c3c2C)cc1OC.O=S(=O)(O)CCO [TCMDC-138057] | 4.5% | 12.4% | -12.7% | 12.4% | -16.7% | 13.3% | -15.1% | -55.1% | 0 | 0 | 0 | – | – | – | – | – | – | – | – |
| COc1cccc(Cc2cnc3nc(N)nc(N)c3c2C)c1 [TCMDC-138060] | – | – | – | – | – | – | – | – | – | – | – | -4.3% | -2.0% | 3.5% | -1.4% | 14.7% | -36.5% | 7.0% | – |
| COc1ccc(Cc2c(N)nc3nc(N)nc(N)c3c2C)cc1.Cl [TCMDC-138061] | – | – | – | – | – | – | – | – | – | – | – | -3.3% | 4.2% | -0.2% | 0.4% | 17.1% | -37.2% | 0.0933% | – |
| Cc1nc(N)nc(N)c1CCCOc1ccccc1Br [TCMDC-138069] | 5.9% | 14.2% | 13.3% | -1.6% | 1.8% | 12.4% | -15.7% | -23.1% | 0 | 0 | 0 | – | – | – | – | – | – | – | – |
| Cc1nc(N)nc(N)c1-c1ccc(Br)c([N+](=O)[O-])c1 [TCMDC-138071] | 6.9% | 11.0% | 2.2% | 10.1% | -11.3% | 15.3% | 5.2% | -48.5% | 0 | 0 | 0 | – | – | – | – | – | – | – | – |
| Cl.Clc1ccc(CNCCCCCCCNCc2ccc(Cl)c(Cl)c2)cc1Cl [TCMDC-138075] | 16.8% | 19.3% | 11.6% | 13.1% | 58.0% | 51.9% | – | 51.1% | – | – | – | – | – | – | – | – | – | – | HitlevelF [1, 4]: 0; HitlevelM [2, 5]: 3 |
